Test system: spontaneously breathing rats
Experiment: Minute ventilation (MV) and cardiovascular parameters in naive rats
Type: in vivo, rat
Set-up: unit not given here
Protocol: All surgical procedures were performed under anesthesia induced by 2% isoflurane in compressed medical grade air. With rats in supine position, the right femoral vein was catheterized using polyethylene tubing (PE-50). This catheter was used for fluid and drug administration. Simultaneously, the right femoral artery was also catheterized for monitoring blood pressure and heart rate. In order to measure the respiratory parameters in spontaneously breathing rats, trachea was intubated using 13 gauge tracheal tube (2.5 mm ID, Instech Solomon, Pa.).
After establishing a stable base-line at 1.5% isoflurane, compounds (typically at a dose of 1 mpk) were administered IV, and ventilatory parameters were generated from spontaneously breathing rats, along with cardiovascular output (mean arterial pressure (MAP) and heart rate). Maximum peak minute ventilatory (MV) responses (MPR), along with changes in minute ventilation versus baseline (AMV) were obtained as shown in the tables below.

[1] = Table 8, 1 mpk, 20% HPβCD, pH 4
[2] = Table 8, 1 mpk, 20% HPβCD, pH 6
[3] = Table 8, 1 mpk, 20% HPβCD, pH 4.5

## CCCNc1nc(NCCC)c2cc[nH]c2n1
1 mpk IV, 20% HPβCD, pH 4-6
  MV MPR: 336
  MV ΔMV: 164

## C=CCNc1nc(N2CCC(c3nc(NCCC)nc(NCCC)n3)CC2)c2ccn(C)c2n1 [6-(1-(2-(allylamino)-7-methyl-7H-pyrrolo[2,3-d]pyrimidin-4-yl)piperidin-4-yl)-N^2,N^4-di-n-propyl-1,3,5-triazine-2,4-diamine]
1 mpk IV, 20% HPβCD, pH 5
  MV MPR: 154
  MV ΔMV: 60

## CCCNc1nc(N(C)N(C)C)c2ccn(C)c2n1 [7-methyl-N-n-propyl-4-(1,2,2-trimethylhydrazinyl)-7H-pyrrolo[2,3-d]pyrimidin-2-amine]
1 mpk IV, 15/65/20, pH 5
  MV MPR: 167
  MV ΔMV: 89
1 mpk IV, 20% HPβCD, pH 4
  MV MPR: 175
  MV ΔMV: 83

## CC(C)CNc1nc(NCC(C)C)nc(N2C3CCC2CC(=O)C3)n1 [(1,5)-8-(4,6-bis(isobutylamino)-1,3,5-triazin-2-yl)-8-azabicyclo[3.2.1]octan-3-one]
1 mpk IV, 20% HPβCD, pH 5
  MV MPR: 237
  MV ΔMV: 137

## CCCNc1nc(NCCC)nc(N2C3CCC2CC(=O)C3)n1 [(1,5)-8-(4,6-bis(n-propylamino)-1,3,5-triazin-2-yl)-8-azabicyclo[3.2.1]octan-3-one]
1 mpk IV, 20% HPβCD, pH 5
  MV MPR: 213
  MV ΔMV: 98

## CCCNc1nc2c(c(N3CCC(O)CC3)n1)CCN2C [CLII, 2-(n-Propyl)amino-4-(4-hydroxypiperidin-1-yl)-7-methyl-pyrrolidino[2,3-d]pyrimidine]
1 mpk IV, 20% HPβCD, pH 4
  MV MPR: 49
  MV ΔMV: 0.33

## CCCNc1nc2c(c(N3C4CCC3CC(O)C4)n1)CCN2C (stereo not shown) [CLV, 8-(7-methyl-2-(n-propylamino)-pyrrolidino[2,3-d]pyrimidin-4-yl)-8-azabicyclo[3.2.1]octan-3-ol]
1 mpk IV, 20% HPβCD, pH 4
  MV MPR: 170
  MV ΔMV: 57

## C=CCNc1nc(NOC)c2ccn(C)c2n1 [CLX, N-(2-(Propen-2-yl)amino-7-methyl-pyrrolo[2,3d]pyrimidin-4-yl)-O-methyl-hydroxylamine]
1 mpk IV, 20% HPβCD, pH 5
  MV MPR: 182
  MV ΔMV: 103

## COCCCNc1nc(NCCCOC)nc(N(C)OC)n1 [CXIII]
[1]
  MV DMV: 46
  MV MPR: 167.1

## CCCNc1nc(N(C)OC)c2cc[nH]c2n1 [CXLI, N-(2-Propylamino-7H-pyrrolo[2,3d]pyrimidin-4-yl)-N,O-dimethyl-hydroxylamine]
1 mpk IV, 20% HPβCD, pH 4-6
  MV MPR: 264
  MV ΔMV: 163

## CCCNc1nc(NCCC)c2c(n1)NCC2 [CXLIX, 2,4-Bis-(n-propyl)amino-7H-pyrrolidino[2,3-d]pyrimidine]
1 mpk IV, 20% HPβCD, pH 4
  MV MPR: 175
  MV ΔMV: 93
1 mpk IV, 20% HPβCD, pH 6
  MV MPR: 263
  MV ΔMV: 167
[1]
  MV DMV: 93
  MV MPR: 175
[2]
  MV DMV: 167
  MV MPR: 263

## CON(C)c1nc2nc(n1)NCCOCCOCCOCCN2 [CXVII, N-(5,8,11-Trioxa-2,14,16,18,19-pentaazabicyclo[13.3.1]nonadeca-1(18),15 (19),16(17)-trien-17-yl)-N,O-dimethylhydroxylamine]
[3]
  MV DMV: 15
  MV MPR: 143.8

## CON(C)c1nc(NCC2CCOCC2)nc(NCC2CCOCC2)n1 [CXV]
Table 8, 1 mpk, 15/65/20, pH 4
  MV DMV: 33.8
  MV MPR: 155.7

## CCCNc1nc(NC(C)C)c2c(n1)N(C)CC2 [CXXVI]
1 mpk IV, 20% HPβCD, pH 5
  MV MPR: 327
  MV ΔMV: 224

## CCCNc1nc(NC)c2c(n1)N(C)CC2 [CXXXI, 2-(n-Propyl)amino-4-methylamino-7-methyl-pyrrolidino[2,3-d]pyrimidine]
1 mpk IV, 20% HPβCD, pH 4
  MV MPR: 204
  MV ΔMV: 130

## CCCNc1nc(NC(C)C)c2c(n1)N(C(C)C)CC2 [CXXXVI, 2-(n-Propyl)amino-4-(i-propyl)amino-7-i-propyl-pyrrolidino[2,3-d]pyrimidine]
1 mpk IV, 20% HPβCD, pH 4
  MV MPR: 238
  MV ΔMV: 143

## CCCNc1cc(N(C)OC)nc(NCCC)n1 [CXX]
1 mpk IV, 20% HPβCD, pH 4-6
  MV MPR: 355
  MV ΔMV: 243
[3]
  MV DMV: 243
  MV MPR: 355

## CCCNc1nc(NCCC)nc(N(C)OCc2ccccc2)n1 [LIII, O-Benzyl-N-(4,6-bis-n-propylamino-[1,3,5]triazin-2-yl)-N-methyl-hydroxylamine]
1 mpk IV, 20% HPβCD, pH 4-6
  MV MPR: 288
  MV ΔMV: 179
